Test results taken from ChEMBL document CHEMBL1201862, “PubChem BioAssay data set” (2004).
Activity calls are given as the source filed them.

Tests used:
Assay type in all cases: functional
[1] = Luminescence Cell-Based Dose Retest to Confirm Inhibitors of Cancer Stem Cells. [Related pubchem assays (depositor defined):AID2717, AID2721]; settings: Homo sapiens
[2] = biological target: T1, Intestinal-type alkaline phosphatase (Homo sapiens, UniProt P09923); test: human IAP activators, dose response, biochemical, luminescent, uHTS hits, set 2 (AID 488817);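 further: potency of activators that raise enzyme activity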
T1 sequence (P09923 whole entry): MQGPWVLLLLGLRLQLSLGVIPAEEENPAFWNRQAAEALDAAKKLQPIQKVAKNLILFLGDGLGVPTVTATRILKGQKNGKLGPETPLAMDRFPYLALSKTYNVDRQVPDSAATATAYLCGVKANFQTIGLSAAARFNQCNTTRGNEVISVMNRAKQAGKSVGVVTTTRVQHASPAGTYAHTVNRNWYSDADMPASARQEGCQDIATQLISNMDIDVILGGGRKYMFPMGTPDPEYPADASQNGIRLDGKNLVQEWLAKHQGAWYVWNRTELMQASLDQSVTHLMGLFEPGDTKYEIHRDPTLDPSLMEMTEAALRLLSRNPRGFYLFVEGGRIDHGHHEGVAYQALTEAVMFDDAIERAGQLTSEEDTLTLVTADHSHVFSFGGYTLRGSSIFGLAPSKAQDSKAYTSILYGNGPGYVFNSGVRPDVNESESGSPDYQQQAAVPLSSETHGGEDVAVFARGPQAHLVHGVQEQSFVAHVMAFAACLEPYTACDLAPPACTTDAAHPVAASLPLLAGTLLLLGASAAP

[3] = biological target: T2, Replicative DNA helicase DnaB (Mycobacterium tuberculosis, UniProt P9WMR3); test: DnaB intein splicing inhibitors, dose response, biochemical, cell-free fluorescence (AID 449749)
T2 sequence (P9WMR3 whole entry): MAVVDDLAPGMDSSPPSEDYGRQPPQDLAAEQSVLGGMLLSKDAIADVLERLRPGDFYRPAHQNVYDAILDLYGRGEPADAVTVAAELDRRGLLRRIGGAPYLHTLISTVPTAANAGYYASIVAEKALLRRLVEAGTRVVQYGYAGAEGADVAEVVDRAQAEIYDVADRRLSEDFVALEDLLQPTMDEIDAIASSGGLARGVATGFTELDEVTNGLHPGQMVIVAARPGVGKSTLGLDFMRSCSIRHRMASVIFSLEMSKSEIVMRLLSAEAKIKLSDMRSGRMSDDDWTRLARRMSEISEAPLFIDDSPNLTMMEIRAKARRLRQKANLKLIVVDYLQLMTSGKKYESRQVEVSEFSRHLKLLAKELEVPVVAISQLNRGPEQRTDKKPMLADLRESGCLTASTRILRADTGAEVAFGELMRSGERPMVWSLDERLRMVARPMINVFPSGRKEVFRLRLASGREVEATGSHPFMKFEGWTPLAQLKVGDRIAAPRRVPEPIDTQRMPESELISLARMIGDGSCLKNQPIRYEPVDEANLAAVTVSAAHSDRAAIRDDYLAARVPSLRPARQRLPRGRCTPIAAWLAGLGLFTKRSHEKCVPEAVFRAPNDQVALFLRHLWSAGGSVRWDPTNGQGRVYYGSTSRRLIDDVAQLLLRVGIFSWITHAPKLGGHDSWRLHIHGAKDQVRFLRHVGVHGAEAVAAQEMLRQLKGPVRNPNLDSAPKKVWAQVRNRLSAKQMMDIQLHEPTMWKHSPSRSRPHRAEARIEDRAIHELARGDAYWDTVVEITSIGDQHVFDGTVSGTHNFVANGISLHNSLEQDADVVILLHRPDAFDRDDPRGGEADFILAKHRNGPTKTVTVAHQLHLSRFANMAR

[4] = biological target: Intestinal-type alkaline phosphatase (Mus musculus, UniProt P24822); test: PubChem AID 488875
Intestinal-type alkaline phosphatase (Mus musculus, UniProt P24822), sequence (P24822 whole entry): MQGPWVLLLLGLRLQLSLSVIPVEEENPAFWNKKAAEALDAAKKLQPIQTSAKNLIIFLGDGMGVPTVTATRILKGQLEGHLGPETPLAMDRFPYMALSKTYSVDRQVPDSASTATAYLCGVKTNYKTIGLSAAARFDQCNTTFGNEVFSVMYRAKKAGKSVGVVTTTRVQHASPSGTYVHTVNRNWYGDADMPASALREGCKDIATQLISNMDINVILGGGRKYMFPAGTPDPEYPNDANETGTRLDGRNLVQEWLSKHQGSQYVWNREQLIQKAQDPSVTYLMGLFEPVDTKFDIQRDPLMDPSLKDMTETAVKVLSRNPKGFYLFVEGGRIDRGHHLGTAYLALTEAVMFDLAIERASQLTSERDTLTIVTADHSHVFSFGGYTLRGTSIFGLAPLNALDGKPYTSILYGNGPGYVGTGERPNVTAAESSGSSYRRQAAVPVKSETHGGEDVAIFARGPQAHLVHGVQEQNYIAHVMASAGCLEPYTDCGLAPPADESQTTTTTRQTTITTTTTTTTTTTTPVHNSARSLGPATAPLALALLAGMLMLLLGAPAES

[5] = biological target: T3, Protein RecA (Mycobacterium tuberculosis, UniProt P9WHJ3); test: Fluorescence Cell-Free Homogeneous Dose Retest to Identify Inhibitors of RecA-Intein Splicing Activity. [Related pubchem assays (depositor defined):AID2097, AID2223, AID489010, AID492950]
T3 sequence (P9WHJ3 whole entry): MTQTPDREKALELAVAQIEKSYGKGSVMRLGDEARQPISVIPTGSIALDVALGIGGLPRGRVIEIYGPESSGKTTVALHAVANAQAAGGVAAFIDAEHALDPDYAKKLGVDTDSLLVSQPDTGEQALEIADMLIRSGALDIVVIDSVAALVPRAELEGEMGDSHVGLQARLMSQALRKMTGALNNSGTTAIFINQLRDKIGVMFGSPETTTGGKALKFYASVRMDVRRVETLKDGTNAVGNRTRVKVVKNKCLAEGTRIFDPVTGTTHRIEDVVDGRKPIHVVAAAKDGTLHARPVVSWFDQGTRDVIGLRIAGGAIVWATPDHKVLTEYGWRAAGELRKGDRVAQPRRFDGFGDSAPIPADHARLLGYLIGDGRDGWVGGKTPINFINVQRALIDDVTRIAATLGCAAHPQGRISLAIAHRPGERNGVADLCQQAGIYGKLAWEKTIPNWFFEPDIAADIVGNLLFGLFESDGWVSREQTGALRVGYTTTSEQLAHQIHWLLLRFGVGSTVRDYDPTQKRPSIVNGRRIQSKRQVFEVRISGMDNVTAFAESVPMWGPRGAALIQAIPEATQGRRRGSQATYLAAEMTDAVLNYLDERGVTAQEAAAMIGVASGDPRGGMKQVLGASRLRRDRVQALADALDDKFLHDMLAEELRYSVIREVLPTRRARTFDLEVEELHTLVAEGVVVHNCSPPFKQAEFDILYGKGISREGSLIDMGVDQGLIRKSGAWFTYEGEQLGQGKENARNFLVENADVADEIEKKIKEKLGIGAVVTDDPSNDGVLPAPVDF

[6] = biological target: T1, Intestinal-type alkaline phosphatase; test: human intestinal alkaline phosphatase activators, dose response, biochemical, luminescence, uHTS hits (AID 463120)
[7] = biological target: T4, High affinity choline transporter 1 (Homo sapiens, UniProt Q9GZV3); test: CHT inhibitors, dose response, cell-based, 5-point CRC, membrane potential dye (AID 504840)
T4 sequence (Q9GZV3 whole entry): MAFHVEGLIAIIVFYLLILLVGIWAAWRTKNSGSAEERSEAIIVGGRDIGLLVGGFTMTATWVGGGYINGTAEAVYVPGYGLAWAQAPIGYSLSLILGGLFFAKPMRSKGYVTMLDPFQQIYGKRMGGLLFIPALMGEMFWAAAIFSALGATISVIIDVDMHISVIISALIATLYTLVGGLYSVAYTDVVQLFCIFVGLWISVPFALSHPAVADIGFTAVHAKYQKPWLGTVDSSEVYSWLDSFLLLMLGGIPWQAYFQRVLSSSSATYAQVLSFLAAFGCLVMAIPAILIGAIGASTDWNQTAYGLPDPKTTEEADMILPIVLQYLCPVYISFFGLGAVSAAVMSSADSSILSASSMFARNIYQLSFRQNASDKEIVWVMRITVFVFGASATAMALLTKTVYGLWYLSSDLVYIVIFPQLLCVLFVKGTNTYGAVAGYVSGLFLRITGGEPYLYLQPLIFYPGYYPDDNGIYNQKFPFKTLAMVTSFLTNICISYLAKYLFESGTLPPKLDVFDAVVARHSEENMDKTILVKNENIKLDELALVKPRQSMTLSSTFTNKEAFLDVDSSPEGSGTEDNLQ

[8] = biological target: T5, Alkaline phosphatase, tissue-nonspecific isozyme (Homo sapiens, UniProt P05186); test: TNAP enzyme activators, dose response, selectivity assay for human IAP activator project, biochemical, TNAP isozyme, human IAP uHTS hits (AID 488886);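 further: potency of compounds raising TNAP activity as a selectivity check on IAP activators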
T5 sequence (P05186 whole entry): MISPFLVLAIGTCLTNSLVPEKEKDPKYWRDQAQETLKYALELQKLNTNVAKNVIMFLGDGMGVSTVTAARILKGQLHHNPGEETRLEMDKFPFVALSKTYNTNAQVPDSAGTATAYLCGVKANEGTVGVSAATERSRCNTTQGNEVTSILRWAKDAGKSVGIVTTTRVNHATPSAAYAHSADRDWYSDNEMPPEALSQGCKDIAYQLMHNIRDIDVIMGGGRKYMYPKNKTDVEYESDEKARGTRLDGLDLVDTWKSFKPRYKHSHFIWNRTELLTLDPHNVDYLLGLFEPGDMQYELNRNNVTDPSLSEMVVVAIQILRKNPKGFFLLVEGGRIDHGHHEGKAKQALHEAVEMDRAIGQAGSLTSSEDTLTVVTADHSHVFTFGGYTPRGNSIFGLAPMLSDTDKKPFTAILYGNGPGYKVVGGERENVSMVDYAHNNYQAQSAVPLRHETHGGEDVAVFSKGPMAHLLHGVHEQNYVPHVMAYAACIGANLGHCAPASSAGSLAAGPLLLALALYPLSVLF

Cc1cc(C)cc(CC(Cc2nc3ccccc3[nH]2)c2nc3ccccc3[nH]2)c1 (stereo not drawn)
active: AC50 [1] 6.69 µM | EC50 [2] 55.6 µM | AC50 [3] 8.31 µM | EC50 [4] 26.6 µM | EC50 [5] 83 µM | EC50 [6] 65.7 µM | IC50 [7] 15.8 µM | EC50 [8] 69.7 µM
